{"source": "patent US9468641B2", "about": "“Anti-inflammatory pharmaceutical composition comprising benzopyranyl tetracycles” (SEOUL NATIONAL UNIVERSITY R&DB FOUNDATION, priority 2014, dated 2016)", "key": {"BV-2 cells": {"tested_on": "BV-2 cells", "assay": "Griess assay of LPS-induced nitrite release in BV-2 cells", "assay_type": "cell-based", "conditions": "BV2 microglial cells, with or without LPS stimulation, FIG. 1", "method": "Cells increase the secretion of nitrite when induced to be inflammatory, but decrease the secretion of nitrite in the presence of an anti-inflammatory agent. […] Cells were treated with the compounds in the absence or presence of 100 ng/mL LPS (lipopolysaccharide). After 24 hrs of incubation, the cell culture media were reacted with Griess reagent (0.1% naphthylethylenediamine dihydrochloride and 1% sulfanilamide in 2% phosphoric acid). Absorbance was measured at 550 nm using a microplate reader, and the level of nitrite was estimated by comparison with a sodium nitrite standard curve."}, "Il6, Il1b, Nos2, and Tnf": {"tested_on": "Il6, Il1b, Nos2, and Tnf", "assay": "RT-PCR of pro-inflammatory mediator expression", "assay_type": "cell-based", "conditions": "FIG. 3", "method": "For the analysis of gene expression, cells were incubated with ICM for 6 hrs in the presence of LPS (for control, cells were treated with DMSO in the absence of LPS). Total RNA was extracted from cells using TRIzol reagent. Reverse transcription was conducted using Superscript II (Invitrogen) and oligo (dT) primers. PCR amplification was conducted using a DNA Engine Tetrad Peltier Thermal Cycler (Bio-Rad) using specific primer sets (at an annealing temperature of 55-60° C. for 20-30 cycles). To analyze PCR products, each sample was electrophoresed on a 1% agarose gel. The Gapdh (Glyceraldehyde-3-phosphate dehydrogenase) gene was used as an internal control."}, "HMGB2 [1]": {"biological_target": "T1, HMGB2 (Mus musculus, UniProt P30681)", "T1 construct": "endogenous in cells", "T1 sequence (P30681 1-210)": "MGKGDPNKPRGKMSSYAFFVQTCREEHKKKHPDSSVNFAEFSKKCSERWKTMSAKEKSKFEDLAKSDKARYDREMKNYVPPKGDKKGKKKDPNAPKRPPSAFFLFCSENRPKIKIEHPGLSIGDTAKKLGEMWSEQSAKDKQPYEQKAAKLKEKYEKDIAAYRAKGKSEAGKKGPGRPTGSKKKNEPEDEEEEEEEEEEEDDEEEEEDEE", "assay": "Pull-down assay with immunoblotting for HMGB2", "assay_type": "binding", "conditions": "ICM 20 μM as soluble competitor, ICM-BP 5 μM, FIG. 12", "method": "Cells were treated with the compounds (ICM-BP alone or ICM-BP/ICM in combination) for 30 min and then with LPS for 2 hrs. Afterwards, the cells were irradiated with 365-nm UV light for 30 min, washed with PBS and stored at −78° C. They were lysed in RIPA buffer containing a protease inhibitor cocktail, and the protein concentration was adjusted to approximately 1 mg/ml. The proteome was labeled with Cy5-azide (40 μM), TBTA (100 μM), CuSO4 (1 mM), TCEP (1 mM) and t-BuOH (5%) for 1 hrs. The mixture was treated with acetone at −20° C. for […] to precipitate proteins. After centrifugation at 4° C. and 14,000 rpm for […], the pellet was washed twice with cold acetone. For 1-D gel analysis, the pellet was dissolved in Laemmli sample buffer and analyzed by electrophoresis. For 2-D gel analysis, the pellet was dissolved in rehydration buffer. The proteome labeled with ICM-BP (test group) and the control (labeled with ICM-BP/ICM) were mixed (1:1 ratio). The mixed proteomes were analyzed by 2-D gel electrophoresis. In-gel fluorescence was scanned with a Typhoon Trio (GE Healthcare).\nCell lysates were prepared according to the same protocol used for the in-gel analysis (lyzed in RIPA buffer containing a protease inhibitor cocktail). […] Samples were boiled with Laemmli sample buffer, and analyzed by electrophoresis and immunoblotting for HMGB2."}, "HMGB2 [2]": {"biological_target": "T1, HMGB2", "assay": "Subcellular fractionation and secretion analysis", "assay_type": "cell-based", "conditions": "LPS stimulation, western blotting, FIG. 17", "method": "After exposure to ICM in the presence of LPS for 18 hrs, cells were lysed in subcellular fraction buffer (250 mM sucrose, 20 mM HEPES, 10 mM KCl, 1 mM EDTA, 1 mM EGTA, 1 mM DTT, and protease inhibitor cocktail), passed through a 25-Ga needle several times, and incubated on ice for 20 min. After centrifugation at 3,000 rpm for 5 min, the pellet and the supernatant were separated. The nuclear pellet was washed and then resuspended in standard lysis buffer with 10% glycerol and 0.1% SDS. The cytosolic fraction was obtained by centrifugation of the separated supernatant at 8,000 rpm for 15 min. The conditioned medium was collected for the analysis of the extracellular level of HMGBs and concentrated with Amicon Ultra 10K filters. The samples were analyzed by electrophoresis and western blotting."}, "[3]": {"tested_on": "LPS-mediated microglial activation", "assay": "LPS neuroinflammation model", "assay_type": "in vivo, C57BL/6 mice", "conditions": "cortex, substantia nigra, hippocampus; ICM 2 and 10 mg/kg, FIG. 19", "method": "All experiments were performed on 11-week-old male C57BL/6 mice. The animals were divided into four experimental groups (group 1: control treated with vehicle; group 2: treated with ICM; group 3: treated with LPS and vehicle; and group 4: treated with LPS and ICM). ICM (2 or 10 mg per kg body weight) or vehicle (distilled water containing 5% DMSO and 40% polyethylene glycol) was administered once a day for 4 days. LPS was administered at a dose of 5 mg/kg on day 2 for a single challenge.\nMice were anesthetized with diethyl ether, transcardially perfused with cold saline, and then fixed with 4% paraformaldehyde diluted in 0.1 M PBS. Brains or lumbar spinal cords were fixed using 4% PFA for 3 days and then cryoprotected with a 30% sucrose solution for 3 days. Three animals were used per experimental group. The fixed brains and spinal cords were embedded in OCT compound for frozen sectioning and then sectioned coronally at 20 μm. To detect LPS-induced microglial activation, each section was incubated with a rabbit anti-Iba-1 antibody and FluoroMyelin. The sections were visualized directly or incubated with Cy3-conjugated anti-rabbit IgG antibody. Also, the sections were stained with hematoxylin and eosin to assess inflammatory lesions."}}}
{"smiles": "CC1(C)Oc2cc(O)ccc2C2C1=CCn1c(=O)n(-c3ccccc3)c(=O)n12", "note": "(centres unmarked) [ICM]", "values": [{"measurement": "LPS-induced nitrite release", "setting": "BV-2 cells", "result": "efficiently blocked LPS-induced nitrite release from BV2 microglial cells in a dose-dependent manner"}, {"measurement": "LPS-induced expression of pro-inflammatory genes", "setting": "Il6, Il1b, Nos2, and Tnf", "result": "suppressed the LPS-induced expression of pro-inflammatory genes in a dose-dependent manner"}, {"measurement": "competition of ICM-BP binding to HMGB2", "setting": "HMGB2 [1]", "result": "markedly lowered the level of binding for HMGB2"}, {"measurement": "translocation of HMGB2 from nucleus to cytoplasm and extracellular milieu", "setting": "HMGB2 [2]", "result": "the translocation was suppressed by ICM"}, {"measurement": "LPS-mediated microglial activation (Iba-1+ cell number)", "setting": "[3]", "result": "effectively blocked LPS-mediated microglial activation in all the brain parts"}]}
